# Test system: subjects with T2DM and renal impairment
# Experiment: Phase 2a: continuous glucose monitoring (CGM)
# Assay type: in vivo, human
# Conditions: ITT; for Average CGM Glucose Over 7-Day Periods, Difference in LS Mean Change (vs Placebo) / Average CGM Glucose Over 7-Day Periods, LS Mean Change / Percentage of time CGM Glucose in Clinically Significant Hypoglycemia (<54 mg/dL), Difference in LS Mean Change (vs Placebo) / Percentage of time CGM Glucose in Clinically Significant Hypoglycemia (<54 mg/dL), LS Mean Change / Percentage of time CGM Glucose in Hyperglycemia (>180 mg/dL), Difference in LS Mean Change (vs Placebo) / Percentage of time CGM Glucose in Hyperglycemia (>180 mg/dL), LS Mean Change / Percentage of time CGM Glucose in Hypoglycemia (<70 mg/dl), Difference in LS Mean Change (vs Placebo) / Percentage of time CGM Glucose in Hypoglycemia (<70 mg/dl), LS Mean Change / Average CGM Glucose Over 7-Day Periods, Change from Baseline to End of Dosing Period, Mean / Average CGM Glucose Over 7-Day Periods, Change from Baseline to End of Dosing Period, Median / Percentage of time CGM Glucose in Hyperglycemia (>180 mg/dL), Change from Baseline to End of Dosing Period, Mean / Percentage of time CGM Glucose in Hyperglycemia (>180 mg/dL), Change from Baseline to End of Dosing Period, Median: baseline Days −8 to −2; for Average CGM Glucose Over 7-Day Periods, Difference in LS Mean Change (vs Placebo) / Average CGM Glucose Over 7-Day Periods, LS Mean Change / Percentage of time CGM Glucose in Clinically Significant Hypoglycemia (<54 mg/dL), Difference in LS Mean Change (vs Placebo) / Percentage of time CGM Glucose in Clinically Significant Hypoglycemia (<54 mg/dL), LS Mean Change / Percentage of time CGM Glucose in Hyperglycemia (>180 mg/dL), Difference in LS Mean Change (vs Placebo) / Percentage of time CGM Glucose in Hyperglycemia (>180 mg/dL), LS Mean Change / Percentage of time CGM Glucose in Hypoglycemia (<70 mg/dl), Difference in LS Mean Change (vs Placebo) / Percentage of time CGM Glucose in Hypoglycemia (<70 mg/dl), LS Mean Change / Time in target range, LS Mean Change: ANCOVA; for Time in target range, LS Mean Change: 300 μg Dose (Days 26 to 32)
# Procedure: Cotadutide was titrated from 50 μg up to 300 μg and administered once daily by subcutaneous (SC) injection over 32 days.
# Cotadutide was administered at 50 μg once daily for 4 days, followed by 100 μg daily for 7 days, 200 μg daily for 7 days, and 300 μg daily for 14 days (n=20). Placebo was administered one daily for 32 days (n=20). Cotadutide and placebo were administered in the morning. Dosing commenced following predose baseline vital signs, blood tests (including HbA1c), an electrocardiogram (ECG), body weight measurement, and bioimpedance spectroscopy (BIS). Subjects then returned for daily dosing or remained overnight locally until Day 5, and thereafter, had visits at weekly intervals until a maintenance dose of 300 μg was established. Thus, Cotadutide or placebo was administered at the study site by study personal for the first four doses and on site on Days 5, 12, 19, and 32. At all other times, subjects preformed dosing at home.
# A Freestyle Libre® Pro CGM device was used to measure interstitial glucose levels. […] Data generated by CGM was used at visits to adjust insulin doses and other treatments.
# The CGM sensor, which is a small plastic circular device of 35 mm diameter and 5 mm depth, was applied to the back of the upper arm. Subjects wore the CGM sensor continuously up until the time of a sensor change, which was to occur within 14 days, and they were advised that they could bathe and shower, and swim in up to 3 m depth for up to 30 minutes while wearing the CGM sensor. When the CGM sensor was removed, a new CGM sensor could be reapplied, ideally close to the original site, but with the subject's site preference taken into account. CGM sensors were single-use only.
# If a subject was unable to tolerate wearing the CGM sensor for the entire duration of the study, the sensor was removed; but the subject was to remain in the study with or without continued CGM and could instead be instructed to monitor capillary plasma glucose measurements four times per day (before meals and before bedtime) and record these levels in the diary provided.
# Subjects underwent continuous glucose monitoring (CGM) starting from Day −14 to Day 40 (±5 days), with sensor changes within 14-day intervals. CGM readings were used to analyze change in average CGM glucose and glucose AUC7 d, coefficient of variation as a marker of glycemic variability, and time spent in target glucose range and hypoglycemia, to enable comparison across different dose levels.
smiles,measurement,setting,value
CCCCCCCCCCCCCCCC(=O)N[C@@H](CCC(=O)NCCCC[C@H](NC(=O)[C@H](CC(=O)O)NC(=O)[C@H](CO)NC(=O)[C@@H](NC(=O)[C@H](Cc1ccccc1)NC(=O)[C@@H](NC(=O)CNC(=O)[C@H](CCC(N)=O)NC(=O)[C@H](CO)NC(=O)[C@@H](N)Cc1c[nH]cn1)[C@@H](C)O)[C@@H](C)O)C(=O)N[C@@H](CO)C(=O)N[C@@H](CCC(=O)O)C(=O)N[C@@H](Cc1ccc(O)cc1)C(=O)N[C@@H](CC(C)C)C(=O)N[C@@H](CC(=O)O)C(=O)N[C@@H](CO)C(=O)N[C@@H](CCC(=O)O)C(=O)N[C@@H](CCCNC(=N)N)C(=O)N[C@@H](C)C(=O)N[C@@H](CCCNC(=N)N)C(=O)N[C@@H](CC(=O)O)C(=O)N[C@@H](Cc1ccccc1)C(=O)N[C@H](C(=O)N[C@@H](C)C(=O)N[C@@H](Cc1c[nH]c2ccccc12)C(=O)N[C@@H](CC(C)C)C(=O)N[C@@H](CCC(=O)O)C(=O)N[C@@H](C)C(=O)NCC(=O)NCC(=O)O)C(C)C)C(=O)O [Cotadutide],"Average CGM Glucose Over 7-Day Periods, End of Dosing Period, Mean",300 μg (Days 19 to 25),124.894 mg/dL
same,"Average CGM Glucose Over 7-Day Periods, End of Dosing Period, Median",300 μg (Days 19 to 25),123.277 mg/dL
same,"Percentage of time CGM Glucose in Hyperglycemia (>180 mg/dL), End of Dosing Period, Mean",300 μg (Days 19 to 25),10.65%
same,"Percentage of time CGM Glucose in Hyperglycemia (>180 mg/dL), End of Dosing Period, Median",300 μg (Days 19 to 25),5.81%
same,"Average CGM Glucose Over 7-Day Periods, Difference in LS Mean Change (vs Placebo)",300 μg (Days 19 to 25),-48.97 mg/dL
same,"Average CGM Glucose Over 7-Day Periods, LS Mean Change",300 μg (Days 19 to 25),-38.75 mg/dL
same,"Percentage of time CGM Glucose in Clinically Significant Hypoglycemia (<54 mg/dL), Difference in LS Mean Change (vs Placebo)",300 μg (Days 19 to 25),4.57%
same,"Percentage of time CGM Glucose in Clinically Significant Hypoglycemia (<54 mg/dL), LS Mean Change",300 μg (Days 19 to 25),3.58%
same,"Percentage of time CGM Glucose in Hyperglycemia (>180 mg/dL), Difference in LS Mean Change (vs Placebo)",300 μg (Days 19 to 25),−23.47%
same,"Percentage of time CGM Glucose in Hyperglycemia (>180 mg/dL), LS Mean Change",300 μg (Days 19 to 25),−23.47%
same,"Percentage of time CGM Glucose in Hypoglycemia (<70 mg/dl), Difference in LS Mean Change (vs Placebo)",300 μg (Days 19 to 25),4.25%
same,"Percentage of time CGM Glucose in Hypoglycemia (<70 mg/dl), LS Mean Change",300 μg (Days 19 to 25),3.39%
same,"Average CGM Glucose Over 7-Day Periods, Change from Baseline to End of Dosing Period, Mean",300 μg (Days 19 to 25),-38.623 mg/dL
same,"Average CGM Glucose Over 7-Day Periods, Change from Baseline to End of Dosing Period, Median",300 μg (Days 19 to 25),-35.498 mg/dL
same,"Percentage of time CGM Glucose in Hyperglycemia (>180 mg/dL), Change from Baseline to End of Dosing Period, Mean",300 μg (Days 19 to 25),−23.50%
same,"Percentage of time CGM Glucose in Hyperglycemia (>180 mg/dL), Change from Baseline to End of Dosing Period, Median",300 μg (Days 19 to 25),−19.64%
same,"Average CGM Glucose Over 7-Day Periods, End of Dosing Period, Mean",300 μg (Days 26 to 32),125.382 mg/dL
same,"Average CGM Glucose Over 7-Day Periods, End of Dosing Period, Median",300 μg (Days 26 to 32),121.594 mg/dL
same,"Percentage of time CGM Glucose in Hyperglycemia (>180 mg/dL), End of Dosing Period, Mean",300 μg (Days 26 to 32),10.00%
same,"Percentage of time CGM Glucose in Hyperglycemia (>180 mg/dL), End of Dosing Period, Median",300 μg (Days 26 to 32),4.38%
same,"Average CGM Glucose Over 7-Day Periods, Difference in LS Mean Change (vs Placebo)",300 μg (Days 26 to 32),-47.89 mg/dL
same,"Average CGM Glucose Over 7-Day Periods, LS Mean Change",300 μg (Days 26 to 32),-41.37 mg/dL
same,"Percentage of time CGM Glucose in Clinically Significant Hypoglycemia (<54 mg/dL), Difference in LS Mean Change (vs Placebo)",300 μg (Days 26 to 32),1.58%
same,"Percentage of time CGM Glucose in Clinically Significant Hypoglycemia (<54 mg/dL), LS Mean Change",300 μg (Days 26 to 32),0.13%
same,"Percentage of time CGM Glucose in Hyperglycemia (>180 mg/dL), Difference in LS Mean Change (vs Placebo)",300 μg (Days 26 to 32),−18.94%
same,"Percentage of time CGM Glucose in Hyperglycemia (>180 mg/dL), LS Mean Change",300 μg (Days 26 to 32),−25.15%
same,"Percentage of time CGM Glucose in Hypoglycemia (<70 mg/dl), Difference in LS Mean Change (vs Placebo)",300 μg (Days 26 to 32),4.91%
same,"Percentage of time CGM Glucose in Hypoglycemia (<70 mg/dl), LS Mean Change",300 μg (Days 26 to 32),3.09%
same,"Average CGM Glucose Over 7-Day Periods, Change from Baseline to End of Dosing Period, Mean",300 μg (Days 26 to 32),-41.401 mg/dL
same,"Average CGM Glucose Over 7-Day Periods, Change from Baseline to End of Dosing Period, Median",300 μg (Days 26 to 32),-51.123 mg/dL
same,"Percentage of time CGM Glucose in Hyperglycemia (>180 mg/dL), Change from Baseline to End of Dosing Period, Mean",300 μg (Days 26 to 32),−25.49%
same,"Percentage of time CGM Glucose in Hyperglycemia (>180 mg/dL), Change from Baseline to End of Dosing Period, Median",300 μg (Days 26 to 32),−23.12%
same,"Time in target range, LS Mean Change",Insulin Dose < 20 U/day,17.13%
same,"Time in target range, LS Mean Change",Insulin Dose ≥ 20 U/day,10.40%
same,"Time in target range, LS Mean Change",Total,14.79%

# From patent US20210213104A1, “GLUCAGON AND GLP-1 CO-AGONISTS FOR THE TREATMENT OF CHRONIC KIDNEY DISEASE AND DIABETIC KIDNEY DISEASE IN TYPE 2 DIABETES” (MEDIMMUNE LIMITED, priority 2020, published 2021)
